Earlier results on two compounds are cited in patent publication US6468993B1, “Method for reducing development of osteoporosis” (BioNumerik Pharmaceuticals, Inc., priority 1999, dated 2002).

One data set has as its system mice. Conditions: intravenously, doses higher than 3750 mg/kg.
A further data set has as its system dogs. Conditions: intravenously, doses higher than 3750 mg/kg.
Another data set concerns humans. As to conditions: doses exceeding 40 g/m^2.

For the compound `O=S(=O)([O-])CCSSCCS(=O)(=O)[O-].[Na+].[Na+]` [dimesna, disodium 2,2′-dithiobis ethane sulfonate], the “adverse effects after administration” value in the data set on mice, with dogs and in the data set on humans was “no adverse effects” in each case.

Consider `[Cl-].[Na+]` [common table salt], for which the “accepted oral LD50” value is given as 3750 mg/kg.
